What was measured:
[1] = tested on: CYSLTR2^L129Q-expressing melan-a cells; test: TPA-independent cell growth, CellTiter-glo 2.0; type: cell-based, mouse; details: 5 days
Procedure: (§1) Data are expressed as the percentage relative light units (RLU) relative to that observed with vehicle. Error bars, s.e.m. from triplicate samples.
(§2) Data are expressed as the percentage RLU relative to that observed with vehicle. Error bars, s.e.m. from triplicate samples.
(§3) Cell Culture and in vitro analysis. Mutation dependent melan-a cells were generated by transducing cells with cDNAs in MSCV-PURO (retrovirus) and then selecting cells with puromycin (1 μg/ml) for two days. TPA (Sigma-Aldrich, St. Louis, Mo.) was then withdrawn from cultures. Cells with activating mutations (CYSLTR2^L129Q, GNAQ^G48V/R183Q/Q209L, KRAS^G12V, and BRAF^V600E) continued to proliferate over several passages (>2 weeks) and were then validated with qRT-PCR and immunoblots. Vector and WT controls were unable to maintain proliferation after a couple passages upon TPA withdrawal. All cells were cultured in media containing 10% FBS, L-glutamine ([…]), penicillin (100 U/ml), streptomycin (100 μg/ml). Melan-a cells provided by D. Bennett, St. George's Hospital, University of London (Johnson C P, et al., PLoS One. 12(6):1-17 (2017)), were cultured in RPMI supplemented with 200 nM TPA unless otherwise noted. HEK293T (from ATCC, Manassas, Va.) cells were cultured in DMEM-Q and UVM cells were cultured in RPMI. All cells tested negative for mycoplasma. Cell growth assays and YM dose response curves were assayed using CellTiter-glo 2.0 (Promega, Madison, Wis.) at given time points or after five days of incubation with YM and readout on a Glomax Luminometer (Promega, Madison, Wis.). IC50 values were calculated using Prism 7.0 software. Growth assays were compared to day 1 readings and dose response curves were compared to vehicle. Data shown is representative of at least three independent experiments with at least three technical replicates. Dose-response curves and growth assays were analyzed using GraphPad Prism 7.0 software.

[2] = tested on: GNAQ^Q209L-expressing melan-a cells; test: TPA-independent cell growth, CellTiter-glo 2.0; type: cell-based, mouse; details: 5 days
Procedure: as §1, §2, §3

[3] = tested on: Gq-mutant OMIM1.3 uveal melanoma cells; test: Colony formation assay; type: cell-based, human; details: 1000 cells per well, until colonies visible in vehicle plates
Procedure: (§4) To evaluate the effect of YM-254890 and trametinib in vitro, colony formation assays were performed. 1000 cells per well of the following cell lines were plated: (1) BRAF-mutant A375 cutaneous melanoma cells, (2) Gq-mutant Mel202 cells, and (3) Gq-mutant OMIM1.3 uveal melanoma cells. The cells were then treated with a negative vehicle control, YM-254890, trametinib, or both. Cells were allowed to grow until visible colonies formed in the vehicle-treated plates.

Gq-mutant Mel202 cells = test: Colony formation assay; type: cell-based, human; details: 1000 cells per well, until colonies visible in vehicle plates
Procedure: as §4

[4] = tested on: BRAF-mutant A375 cutaneous melanoma cells; test: Colony formation assay; type: cell-based, human; details: 1000 cells per well, until colonies visible in vehicle plates
Procedure: as §4

[5] = tested on: GNAQ^G48V-expressing melan-a cells; test: TPA-independent cell growth, CellTiter-glo 2.0; type: cell-based, mouse; details: 5 days, without TPA
Procedure: as §1, §3

[6] = tested on: BRAF^V600E-expressing melan-a cells; test: TPA-independent cell growth, CellTiter-glo 2.0; type: cell-based, mouse; details: 5 days, without TPA
Procedure: as §1, §3

[7] = tested on: GNAQ^R183Q-expressing melan-a cells; test: TPA-independent cell growth, CellTiter-glo 2.0; type: cell-based, mouse; details: 5 days, without TPA
Procedure: as §1, §3

[8] = tested on: KRAS^G12V-expressing melan-a cells; test: TPA-independent cell growth, CellTiter-glo 2.0; type: cell-based, mouse; details: 5 days, without TPA
Procedure: as §1, §3

CYSLTR2^L129Q = test: IP1 accumulation assay in transiently transfected HEK293T cells; type: cell-based, human; details: 24-hour treatment
Procedure: Cells were treated with YM at increasing doses for 24 hours. Error bars, s.e.m. from three biological replicates, each with three technical replicates.
Exogenous Gene Expression. HEK293T cells were transiently transfected to express vectors containing synthetic CYSLTR2 (Moore A R, et al., Nat Genet. 48(6):675 (2016)) and GNAQ. Genewiz was used to codon optimize these sequences for expression in mammalian cells. The human GNAQ α-subunit plasmids encoding for GNAQ mutants Q209L, R183Q and G48V were generated by Quick Change (Agilent Technologies, Santa Clara, Calif.) site-directed mutagenesis. […]
IP1 Accumulation Assay. IP1 concentrations in GNAQ-transfected HEK293T cells, GNAQ-expressing melan-a cells and uveal melanoma cells was measured using a competitive homogenous time resolved fluorescence (HTRF) assay (CisBio, Bedford, Mass.). […] Following incubation, cells were lysed by adding 3 μL/well of d2-labeled IP1 analogue as the fluorescence acceptor and the Terbium cryptate-labeled anti-IP1 mAb as the fluorescence donor, diluted in the kit-supplied lysis buffer. The plates were incubated overnight at RT and time-resolved fluorescence signals were read using the BioTek Synergy NEO plate reader (BioTek Instruments, Winooski, Vt.) at 620 nm and 655 nm. […] Dose-response curves and bar graphs were analyzed using GraphPad Prism 7.0 software. […]

YM-254890 was tested, and the “YM-mediated growth inhibition in the presence of TPA” value ([1]; with TPA) was “rescued”, the “sensitivity of TPA-independent cell growth to YM” value (from here on “sensitivity”) ([1]; without TPA) was “sub-nanomolar sensitivity” and the “YM-mediated growth inhibition in the presence of TPA” value ([2]; with TPA) was “rescued”. For the same substance, the “sensitivity” value ([2]; without TPA) was “modestly less sensitive”, the colony formation [3] was “moderate sensitivity” and the colony formation (Gq-mutant Mel202 cells) was “moderate sensitivity”. The colony formation [4] was “resistant”, the “sensitivity” value [5] was “sub-nanomolar sensitivity” and the “sensitivity” value [6] was “completely resistant”. The “sensitivity” value [7] was “modestly less sensitive”, the “sensitivity” value [8] was “completely resistant” and the “potency of inhibition of IP1 accumulation” value (CYSLTR2^L129Q) was “subnanomolar potency”.

— patent publication US20210403864A1, “METHODS AND COMPOSITIONS FOR TREATING ACTIVATED G-ALPHA Q MUTANT CANCERS OR MELANOCYTIC MALIGNANCIES” (Memorial Sloan Kettering Cancer Center, priority 2018, published 2021)
